The text below walks through data of patent US6844355B2 (Academic Pharmaceuticals, Inc., priority 1999, dated 2005).

One assay addresses T1, KVLQT1+KCNE1 (IKs) (Homo sapiens, UniProt P51787).
T1 construct: expressed in transfected cells; host or cells: Xenopus laevis oocytes (co-injection of hminK and KVLQT1 cRNA)
Put plainly: KVLQT1+KCNE1 (IKs) currents in Xenopus oocytes. In kind it is cell-based. Here is the method: Wild type human minK (KCNE1) and KVLQT1 cDNA are isolated from human cardiac and pancreas cDNA libraries and cloned into the pSP64 poly (A) vector (Promega). For transcription in oocytes, the minK is subcloned from genomic DNA using the MKEL and MKER primers. The final minK expression construct contains cDNA inserted in the plasmid vector (PROMEGA). For the injection into Xenopus oocytes, cRNA is prepared using the mCAP RNA capping kit (Stratagene) following linearization of the expression construct by restriction digestion with EcoRI for run-off transcription.
In-vitro transcription is performed with SP6 RNA polymerize using the mMessage Machine kit (Ambion). The final capped-cRNA product is resuspended in 0.1 mM KCL and stored at −80° C. The concentration of synthesized RNA is estimated by separating the denatured cRNA on a 1.5% agarose gel together with the 0.24-9.5 kb RNA ladder (Gibco-BRL).
KVLQT1+KCNE1 currents are recorded with a solution containing in mmol-L: NaCl-96; KCl-2 CaCl2-1.8; MgCl2-1.0; and HEPES 5, pH 7.4. The following testing protocols are used: a) I-V plot, oocytes are held at −80 mV, then step pulses from −60 mV to +40 mV in 20 mV increments of 18 seconds are applied returning to −40 mV; b) Single pulses, the same protocol is applied for control current and after drug perfusion for current measurement. From a holding potential of −80 mV to a test potential of +40 mV during 18 seconds a pulse is applied. […] The cell is either left at a resting potential of −80 mV or stimulated from a holding potential of −80 mV to a test potential of +40 mV during 1000 ms in a frequency range of 0.3 Hz.
Isolation of oocytes and cRNA injection. Xenopus laevis frogs are anesthetized by immersion in 0.2% Trocaine for 15-30 min. A small incision is made in the lateral ventral quadrant of the abdomen and a small piece of ovarian tissue is removed. The incision is then sutured at both the muscle and the cutaneous layers with fine silk thread and the animal is allowed to recover. The ovarian lobe is digested with 10 mg/ml type 1A collagenase (Sigma) in calcium-free solution for 30-60 min to remove the follicle layer. Stage V and VI oocytes are injected with 40 nl of a solution containing 10 to 50 ng/μl cRNA of either SCN5A, HERG, or hminK and KVLQT1, and then incubated at 19° C. in a modified bath solution for 2-8 days.

The next assay deals with ileum. Put plainly: Ileum strip contractility, isometric muscle contractions. More on the design: species or system Guinea pig. The settings on record: for Bursts / Slow waves / Spikes: mean ± standard deviation; for effect on ileum strip contractility, in words: Table 2 / FIG. 9. Here is the method: Rat Ileum Studies and Characterization of Chiral Separation Products. Guinea pig ileum is harvested and placed in warm (37° C.) Krebs […] buffer and oxygenated (95% O2 and 5% CO2). Segments approximately 4.5 cm long are placed on a transducer (Gilson Instruments) and a preload of 1 gm is placed on the tissue. The tissue is then placed in a chamber and bathed in Tyrode's solution (37.5° C.) and oxygenated (95% O2 and 5% CO2). Muscle contractions are measured isometrically. After stable contractions are obtained, a study compound is added to the tissue bath and recordings are made until a new steady state of contraction is obtained. Following a washout period, a new steady state of contraction is recorded and then the procedure repeated with a second dose of the drug being evaluated. Changes in contraction magnitude are recorded as the percentage change from baseline. This procedure is a modification of the technique described by Van Neuten and associates (Van Neuten et al., Life Sci. 1978 28:453-458). […] The preparation permits the identification of slow waves of contraction, bursts of contraction of the smooth muscle and spikes of marked cross-sectional contraction. Each of the measures can be used as a measurement of contractile effect of an agent.

Entries after “also recorded” stand apart in the source; their conditions may differ.

T1 sequence (P51787 whole entry): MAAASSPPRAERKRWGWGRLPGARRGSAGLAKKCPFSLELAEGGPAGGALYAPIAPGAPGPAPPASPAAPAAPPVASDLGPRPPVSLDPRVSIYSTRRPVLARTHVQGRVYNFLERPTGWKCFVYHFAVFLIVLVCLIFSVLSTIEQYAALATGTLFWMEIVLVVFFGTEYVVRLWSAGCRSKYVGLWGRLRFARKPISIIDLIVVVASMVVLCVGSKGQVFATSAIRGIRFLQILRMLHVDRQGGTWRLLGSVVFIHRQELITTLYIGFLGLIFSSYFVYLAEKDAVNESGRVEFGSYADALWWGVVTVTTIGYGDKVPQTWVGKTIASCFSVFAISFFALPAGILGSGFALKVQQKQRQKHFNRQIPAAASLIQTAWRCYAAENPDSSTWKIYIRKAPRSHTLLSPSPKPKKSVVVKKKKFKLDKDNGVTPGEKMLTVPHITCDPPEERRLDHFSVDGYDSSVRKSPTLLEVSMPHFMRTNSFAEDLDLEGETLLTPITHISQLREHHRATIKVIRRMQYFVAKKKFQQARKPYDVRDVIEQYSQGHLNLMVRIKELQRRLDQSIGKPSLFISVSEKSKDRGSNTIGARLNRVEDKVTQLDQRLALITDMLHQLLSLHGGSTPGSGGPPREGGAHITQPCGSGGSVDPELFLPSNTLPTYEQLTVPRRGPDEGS

With `CCCCc1oc2ccccc2c1C(=O)c1cc(I)c(OCCN(CC)CC)c(I)c1` [AMIODARONE, amiodarone], the “effect on IKs current, in words” value on KVLQT1+KCNE1 (IKs) (100 μM) is recorded as “inhibits the current flow across the IKs channel”. Moreover, the “% of block of IKs” value came to 47 ± 1% at KVLQT1+KCNE1 (IKs) (10^−4 Molar), 30 ± 3% on KVLQT1+KCNE1 (IKs) (10^−5 Molar) and 15 ± 1% at KVLQT1+KCNE1 (IKs) (10^−6 Molar).

Regarding `C=C[C@H]1C[N@@]2CC[C@H]1C[C@@H]2[C@@H](O)c1ccnc2ccc(OC)cc12` [Quinidine, quinidine], the figures for the Bursts in the assay on ileum (10^−5 M), in the assay on ileum (10^−6 M) and in the assay with ileum (10^−7 M) were 14 ± 4, 7.7 ± 1.2 and 8 ± 2, respectively. Also, the Slow waves in the assay with ileum (10^−5 M) amounted to 6 ± 1; in the assay with ileum (10^−6 M) it was 3.0 ± 0.5; in the assay on ileum (10^−7 M), 3.3 ± 0.6. Moreover, the Spikes in the assay with ileum (10^−5 M) was found to be 15 ± 1; with ileum (10^−6 M), 13 ± 2; in the assay with ileum (10^−7 M), 11 ± 1. Also, the “effect on rat illeal strip tracings, in words” value in the assay on ileum (10^−7 and 10^−6 M, FIG. 9 legend) was “reduces the magnitude of contraction”. The “effect on ileum strip contractility, in words” value in the assay on ileum was “augmentation of slow wave contractility, burst contractility and spike contractility; also recorded: increases slow waves”. Moreover, the figures for the “% of block of IKs” value at KVLQT1+KCNE1 (IKs) (10^−4 Molar), on KVLQT1+KCNE1 (IKs) (10^−5 Molar) and at KVLQT1+KCNE1 (IKs) (10^−6 Molar) were 52 ± 5%, 21 ± 7% and 14 ± 5%, respectively. Also, the “reduction of IKs currents” value on KVLQT1+KCNE1 (IKs) (concentrations from 10^−6 to 10^−4, respectively) is 14 to 52%.

Regarding `C=C[C@H]1C[N@@]2CC[C@H]1C[C@H]2[C@H](O)c1ccnc2ccc(OC)cc12` [quinine], in the assay with ileum, the “effect on ileum strip contractility, in words” value was “no effect”.
